Laboratory results: the supplement of paper PMC10307832

How the values were obtained:
Experiment in all cases: relative viability (nuclei count vs DMSO), 5 days (fraction); higher = more cells survive
BEN = tested on: BEN
Summary of the method: (§1)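 Lung cancer cell lines in 1536-well plates were dosed by pin tool the day after seeding, either with one drug alone or with a fixed anchor-drug dose plus five library-drug doses (not always all listed) in √10 steps. After 5 days, cells were fixed and their nuclei stained in one step (final 0.05% Triton X-100, 1% formaldehyde, 1 ug/ml Hoechst), then counted on 4× images. Relative viability is the nuclei count in treated wells divided by that in vehicle wells. Values are medians of duplicate plates.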

CAL-12T = tested on: CAL-12T
Summary of the method: as §1

COR-L23 = tested on: COR-L23
Summary of the method: as §1

HCC-366 = tested on: HCC-366
Summary of the method: as §1

LOU-NH91 = tested on: LOU-NH91
Summary of the method: as §1

LU99A = tested on: LU99A
Summary of the method: as §1

NCI-H1355 = tested on: NCI-H1355
Summary of the method: as §1

NCI-H1437 = tested on: NCI-H1437
Summary of the method: as §1

NCI-H1563 = tested on: NCI-H1563
Summary of the method: as §1

NCI-H1650 = tested on: NCI-H1650
Summary of the method: as §1

NCI-H1651 = tested on: NCI-H1651
Summary of the method: as §1

NCI-H1734 = tested on: NCI-H1734
Summary of the method: as §1

NCI-H1793 = tested on: NCI-H1793
Summary of the method: as §1

NCI-H1975 = tested on: NCI-H1975
Summary of the method: as §1

NCI-H2023 = tested on: NCI-H2023
Summary of the method: as §1

NCI-H2085 = tested on: NCI-H2085
Summary of the method: as §1

NCI-H2342 = tested on: NCI-H2342
Summary of the method: as §1

NCI-H358 = tested on: NCI-H358
Summary of the method: as §1

NCI-H441 = tested on: NCI-H441
Summary of the method: as §1

NCI-H460 = tested on: NCI-H460
Summary of the method: as §1

NCI-H838 = tested on: NCI-H838
Summary of the method: as §1

SK-LU-1 = tested on: SK-LU-1
Summary of the method: as §1

## Nc1ccn([C@@H]2O[C@H](CO)[C@@H](O)[C@@H]2O)c(=O)n1 [Cytarabine] + Nc1nc2[nH]cc(CCc3ccc(C(=O)N[C@@H](CCC(=O)O)C(=O)O)cc3)c2c(=O)[nH]1 [Pemetrexed] (partner 0.2 µM)
BEN; first compound 0.005 µM
  relative viability: 0.632
BEN; first compound 0.01581 µM
  relative viability: 0.512
BEN; first compound 0.05 µM
  relative viability: 0.383
BEN; first compound 0.1581 µM
  relative viability: 0.366
BEN; first compound 0.5 µM
  relative viability: 0.287
CAL-12T; first compound 0.005 µM
  relative viability: 0.928
CAL-12T; first compound 0.01581 µM
  relative viability: 1.11
CAL-12T; first compound 0.05 µM
  relative viability: 0.984
CAL-12T; first compound 0.1581 µM
  relative viability: 0.543
CAL-12T; first compound 0.5 µM
  relative viability: 0.249
COR-L23; first compound 0.005 µM
  relative viability: 0.196
COR-L23; first compound 0.01581 µM
  relative viability: 0.204
COR-L23; first compound 0.05 µM
  relative viability: 0.206
COR-L23; first compound 0.1581 µM
  relative viability: 0.16
COR-L23; first compound 0.5 µM
  relative viability: 0.158
HCC-366; first compound 0.005 µM
  relative viability: 0.161
HCC-366; first compound 0.01581 µM
  relative viability: 0.217
HCC-366; first compound 0.05 µM
  relative viability: 0.25
HCC-366; first compound 0.1581 µM
  relative viability: 0.0693
HCC-366; first compound 0.5 µM
  relative viability: 0.062
LOU-NH91; first compound 0.005 µM
  relative viability: 0.383
LOU-NH91; first compound 0.01581 µM
  relative viability: 0.395
LOU-NH91; first compound 0.05 µM
  relative viability: 0.379
LOU-NH91; first compound 0.1581 µM
  relative viability: 0.318
LOU-NH91; first compound 0.5 µM
  relative viability: 0.339
LU99A; first compound 0.005 µM
  relative viability: 0.22
LU99A; first compound 0.01581 µM
  relative viability: 0.179
LU99A; first compound 0.05 µM
  relative viability: 0.177
LU99A; first compound 0.1581 µM
  relative viability: 0.195
LU99A; first compound 0.5 µM
  relative viability: 0.163
NCI-H1355; first compound 0.005 µM
  relative viability: 0.883
NCI-H1355; first compound 0.01581 µM
  relative viability: 0.988
NCI-H1355; first compound 0.05 µM
  relative viability: 0.821
NCI-H1355; first compound 0.1581 µM
  relative viability: 0.553
NCI-H1355; first compound 0.5 µM
  relative viability: 0.324
NCI-H1437; first compound 0.005 µM
  relative viability: 0.339
NCI-H1437; first compound 0.01581 µM
  relative viability: 0.344
NCI-H1437; first compound 0.05 µM
  relative viability: 0.335
NCI-H1437; first compound 0.1581 µM
  relative viability: 0.321
NCI-H1437; first compound 0.5 µM
  relative viability: 0.258
NCI-H1563; first compound 0.005 µM
  relative viability: 0.823
NCI-H1563; first compound 0.01581 µM
  relative viability: 0.727
NCI-H1563; first compound 0.05 µM
  relative viability: 0.637
NCI-H1563; first compound 0.1581 µM
  relative viability: 0.505
NCI-H1563; first compound 0.5 µM
  relative viability: 0.44
NCI-H1650; first compound 0.005 µM
  relative viability: 0.367
NCI-H1650; first compound 0.01581 µM
  relative viability: 0.353
NCI-H1650; first compound 0.05 µM
  relative viability: 0.262
NCI-H1650; first compound 0.1581 µM
  relative viability: 0.199
NCI-H1650; first compound 0.5 µM
  relative viability: 0.158
NCI-H1651; first compound 0.005 µM
  relative viability: 0.479
NCI-H1651; first compound 0.01581 µM
  relative viability: 0.569
NCI-H1651; first compound 0.05 µM
  relative viability: 0.223
NCI-H1651; first compound 0.1581 µM
  relative viability: 0.451
NCI-H1651; first compound 0.5 µM
  relative viability: 0.221
NCI-H1734; first compound 0.005 µM
  relative viability: 0.501
NCI-H1734; first compound 0.01581 µM
  relative viability: 0.236
NCI-H1734; first compound 0.05 µM
  relative viability: 0.193
NCI-H1734; first compound 0.1581 µM
  relative viability: 0.117
NCI-H1734; first compound 0.5 µM
  relative viability: 0.103
NCI-H1793; first compound 0.005 µM
  relative viability: 0.902
NCI-H1793; first compound 0.01581 µM
  relative viability: 0.827
NCI-H1793; first compound 0.05 µM
  relative viability: 0.827
NCI-H1793; first compound 0.1581 µM
  relative viability: 0.374
NCI-H1793; first compound 0.5 µM
  relative viability: 0.206
NCI-H1975; first compound 0.005 µM
  relative viability: 0.255
NCI-H1975; first compound 0.01581 µM
  relative viability: 0.287
NCI-H1975; first compound 0.05 µM
  relative viability: 0.297
NCI-H1975; first compound 0.1581 µM
  relative viability: 0.28
NCI-H1975; first compound 0.5 µM
  relative viability: 0.266
NCI-H2023; first compound 0.005 µM
  relative viability: 0.193
NCI-H2023; first compound 0.01581 µM
  relative viability: 0.126
NCI-H2023; first compound 0.05 µM
  relative viability: 0.105
NCI-H2023; first compound 0.1581 µM
  relative viability: 0.0804
NCI-H2023; first compound 0.5 µM
  relative viability: 0.0895
NCI-H2085; first compound 0.005 µM
  relative viability: 0.788
NCI-H2085; first compound 0.01581 µM
  relative viability: 0.921
NCI-H2085; first compound 0.05 µM
  relative viability: 0.906
NCI-H2085; first compound 0.1581 µM
  relative viability: 0.703
NCI-H2085; first compound 0.5 µM
  relative viability: 0.547
NCI-H2342; first compound 0.005 µM
  relative viability: 0.667
NCI-H2342; first compound 0.01581 µM
  relative viability: 0.707
NCI-H2342; first compound 0.05 µM
  relative viability: 0.638
NCI-H2342; first compound 0.1581 µM
  relative viability: 0.504
NCI-H2342; first compound 0.5 µM
  relative viability: 0.353
NCI-H358; first compound 0.005 µM
  relative viability: 0.195
NCI-H358; first compound 0.01581 µM
  relative viability: 0.188
NCI-H358; first compound 0.05 µM
  relative viability: 0.185
NCI-H358; first compound 0.1581 µM
  relative viability: 0.168
NCI-H358; first compound 0.5 µM
  relative viability: 0.116
NCI-H441; first compound 0.005 µM
  relative viability: 0.273
NCI-H441; first compound 0.01581 µM
  relative viability: 0.251
NCI-H441; first compound 0.05 µM
  relative viability: 0.331
NCI-H441; first compound 0.1581 µM
  relative viability: 0.226
NCI-H441; first compound 0.5 µM
  relative viability: 0.144
NCI-H460; first compound 0.005 µM
  relative viability: 0.0718
NCI-H460; first compound 0.01581 µM
  relative viability: 0.0671
NCI-H460; first compound 0.05 µM
  relative viability: 0.0853
NCI-H460; first compound 0.1581 µM
  relative viability: 0.0459
NCI-H460; first compound 0.5 µM
  relative viability: 0.037
NCI-H838; first compound 0.005 µM
  relative viability: 0.243
NCI-H838; first compound 0.01581 µM
  relative viability: 0.235
NCI-H838; first compound 0.05 µM
  relative viability: 0.272
NCI-H838; first compound 0.1581 µM
  relative viability: 0.216
NCI-H838; first compound 0.5 µM
  relative viability: 0.213
SK-LU-1; first compound 0.005 µM
  relative viability: 0.827
SK-LU-1; first compound 0.01581 µM
  relative viability: 0.732
SK-LU-1; first compound 0.05 µM
  relative viability: 0.642
SK-LU-1; first compound 0.1581 µM
  relative viability: 0.377
SK-LU-1; first compound 0.5 µM
  relative viability: 0.331
